This passage reports IC50 results from patent US20230295119A1, “SUBSTITUTED PYRIDINES FOR THE TREATMENT OF INFLAMMATORY DISEASES” (GOSSAMER BIO SERVICES, INC., priority 2020, published 2023).

The target in assay [1] is human JAK1 (Homo sapiens (Human), UniProt P23458). In words: JAK1 TR-FRET kinase assay. The format is biochemical. The settings on record: TR-FRET, JAK1 2.5 nM. (In TR-FRET formats the signal depends on donor and acceptor labels being close together.)
For assay [2], the target named is TYK2 JH2 domain (Homo sapiens (Human), UniProt P29597). Nature of the assay: TYK2 JH2 NanoBRET assay. The assay is classed as binding. As for the experimental part:
HEK293T cells were transfected with NanoLuc-TYK2 JH2 Fusion Vector (Promega, customized) using Trans-IT reagent (Mirus, #MIR2700) and incubated for overnight in 37° C. incubator. […] Add 85 µL of cell suspension into white, polypropylene, 96-well plates (Corning, #3600). 90 µL of cells were used for no tracer control samples. 5 µL of diluted NanoBRET K10 tracer (Promega, #CS1810C122) were added to cells to a final concentration of 0.5 µM. Test compounds were diluted into DMSO, and then phenol-free opti-MEM to 10X of final concentration. 10 µL of diluted compounds were added into each well. The cells were incubated with test compound and tracer for 2 hours. 3XNanoBRET® Nano-Glo® Substrate and Extracellular NanoLuc® Inhibitor mixture were prepared and 50 µL of the mixture were added into the wells and mixed. […] NanoBRET signal was determined by using the ratio of acceptor signal and donor signal.
Background: In BRET a luciferase serves as donor, and the signal depends on an acceptor being close.

Assay [3] deals with human JAK2 (Homo sapiens (Human), UniProt O60674). In words: JAK2 TR-FRET kinase assay. The settings on record: JAK2 0.025 nM. The assay is classed as biochemical.
In assay [4] the target is human JAK3 (Homo sapiens (Human), UniProt P52333). In words: JAK3 TR-FRET kinase assay. The assay is classed as biochemical. The settings on record: JAK3 0.0125 nM.
Where [5] appears, read: HEK293T cells, Table 19, read-out: IC50 (nM), TYK2 activity.

Read-outs that look alike come from different tables or passages of the source.

A word on the IC50: it is the concentration needed to halve the response being measured.

human JAK2, sequence (O60674 whole entry): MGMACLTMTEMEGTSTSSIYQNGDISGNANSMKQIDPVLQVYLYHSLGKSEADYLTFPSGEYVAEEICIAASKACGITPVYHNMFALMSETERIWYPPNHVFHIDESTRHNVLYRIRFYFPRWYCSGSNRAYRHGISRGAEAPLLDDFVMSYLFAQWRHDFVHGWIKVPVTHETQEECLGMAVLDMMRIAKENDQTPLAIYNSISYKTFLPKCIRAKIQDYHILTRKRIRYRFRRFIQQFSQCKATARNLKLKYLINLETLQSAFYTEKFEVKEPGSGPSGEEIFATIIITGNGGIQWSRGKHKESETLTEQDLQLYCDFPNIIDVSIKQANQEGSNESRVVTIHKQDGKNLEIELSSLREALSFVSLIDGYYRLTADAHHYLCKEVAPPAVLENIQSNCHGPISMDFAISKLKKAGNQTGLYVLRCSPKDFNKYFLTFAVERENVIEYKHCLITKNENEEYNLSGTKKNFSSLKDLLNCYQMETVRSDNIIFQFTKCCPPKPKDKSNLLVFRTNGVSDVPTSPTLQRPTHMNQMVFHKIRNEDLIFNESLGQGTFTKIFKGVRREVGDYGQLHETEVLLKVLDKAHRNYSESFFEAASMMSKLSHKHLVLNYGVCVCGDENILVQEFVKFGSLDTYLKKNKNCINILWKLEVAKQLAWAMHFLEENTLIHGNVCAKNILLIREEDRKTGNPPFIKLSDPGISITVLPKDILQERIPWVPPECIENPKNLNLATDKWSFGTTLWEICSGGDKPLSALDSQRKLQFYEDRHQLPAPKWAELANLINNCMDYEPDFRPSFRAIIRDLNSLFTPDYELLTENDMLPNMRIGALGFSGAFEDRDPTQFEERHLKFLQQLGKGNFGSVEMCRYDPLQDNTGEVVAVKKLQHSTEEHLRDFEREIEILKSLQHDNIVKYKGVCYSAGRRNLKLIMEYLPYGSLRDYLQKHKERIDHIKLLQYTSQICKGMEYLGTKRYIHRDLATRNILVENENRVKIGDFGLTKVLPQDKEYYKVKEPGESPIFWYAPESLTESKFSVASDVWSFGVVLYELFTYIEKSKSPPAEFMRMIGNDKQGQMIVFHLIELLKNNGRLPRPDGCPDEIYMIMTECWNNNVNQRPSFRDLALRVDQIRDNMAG
human JAK1, sequence (P23458 whole entry, the tested form may be a part): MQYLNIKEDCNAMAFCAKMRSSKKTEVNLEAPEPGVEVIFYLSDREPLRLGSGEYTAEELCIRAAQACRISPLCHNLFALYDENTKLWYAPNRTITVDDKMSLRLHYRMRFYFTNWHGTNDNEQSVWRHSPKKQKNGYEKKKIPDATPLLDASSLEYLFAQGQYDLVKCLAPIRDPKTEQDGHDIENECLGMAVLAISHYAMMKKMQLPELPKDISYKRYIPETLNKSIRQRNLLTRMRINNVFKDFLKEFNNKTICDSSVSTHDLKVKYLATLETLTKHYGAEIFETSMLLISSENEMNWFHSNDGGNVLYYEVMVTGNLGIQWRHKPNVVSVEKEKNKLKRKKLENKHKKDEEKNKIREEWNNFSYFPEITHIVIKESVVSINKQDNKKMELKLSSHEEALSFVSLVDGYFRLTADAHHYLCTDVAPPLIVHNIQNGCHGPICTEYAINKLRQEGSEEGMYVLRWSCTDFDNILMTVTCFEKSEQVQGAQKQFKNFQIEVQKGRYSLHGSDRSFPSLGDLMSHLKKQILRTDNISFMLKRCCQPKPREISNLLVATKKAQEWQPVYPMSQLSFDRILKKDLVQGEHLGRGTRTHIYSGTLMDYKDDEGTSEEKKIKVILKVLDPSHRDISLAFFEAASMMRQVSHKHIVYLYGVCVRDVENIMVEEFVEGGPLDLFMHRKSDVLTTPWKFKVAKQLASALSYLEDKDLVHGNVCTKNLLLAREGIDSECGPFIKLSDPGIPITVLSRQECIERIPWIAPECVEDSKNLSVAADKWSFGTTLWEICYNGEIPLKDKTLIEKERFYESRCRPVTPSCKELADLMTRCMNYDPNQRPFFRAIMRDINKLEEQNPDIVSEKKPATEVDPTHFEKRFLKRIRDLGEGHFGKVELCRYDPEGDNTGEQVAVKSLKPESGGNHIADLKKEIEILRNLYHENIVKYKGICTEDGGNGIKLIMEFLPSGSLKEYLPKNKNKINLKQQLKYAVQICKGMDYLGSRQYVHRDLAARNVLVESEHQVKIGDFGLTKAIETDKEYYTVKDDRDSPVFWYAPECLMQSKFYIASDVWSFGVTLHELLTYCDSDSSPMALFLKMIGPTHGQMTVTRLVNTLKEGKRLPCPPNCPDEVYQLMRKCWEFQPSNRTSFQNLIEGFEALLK
TYK2 JH2 domain, sequence (P29597 589-875): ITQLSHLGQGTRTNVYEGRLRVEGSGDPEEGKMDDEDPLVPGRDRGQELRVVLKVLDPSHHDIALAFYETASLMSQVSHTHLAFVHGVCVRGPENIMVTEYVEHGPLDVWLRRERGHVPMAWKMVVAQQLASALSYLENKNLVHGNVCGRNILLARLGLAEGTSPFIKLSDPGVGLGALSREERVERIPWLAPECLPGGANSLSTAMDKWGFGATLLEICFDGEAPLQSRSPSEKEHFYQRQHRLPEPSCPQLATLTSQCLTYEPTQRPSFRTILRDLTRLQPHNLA
human JAK3, sequence (P52333 whole entry): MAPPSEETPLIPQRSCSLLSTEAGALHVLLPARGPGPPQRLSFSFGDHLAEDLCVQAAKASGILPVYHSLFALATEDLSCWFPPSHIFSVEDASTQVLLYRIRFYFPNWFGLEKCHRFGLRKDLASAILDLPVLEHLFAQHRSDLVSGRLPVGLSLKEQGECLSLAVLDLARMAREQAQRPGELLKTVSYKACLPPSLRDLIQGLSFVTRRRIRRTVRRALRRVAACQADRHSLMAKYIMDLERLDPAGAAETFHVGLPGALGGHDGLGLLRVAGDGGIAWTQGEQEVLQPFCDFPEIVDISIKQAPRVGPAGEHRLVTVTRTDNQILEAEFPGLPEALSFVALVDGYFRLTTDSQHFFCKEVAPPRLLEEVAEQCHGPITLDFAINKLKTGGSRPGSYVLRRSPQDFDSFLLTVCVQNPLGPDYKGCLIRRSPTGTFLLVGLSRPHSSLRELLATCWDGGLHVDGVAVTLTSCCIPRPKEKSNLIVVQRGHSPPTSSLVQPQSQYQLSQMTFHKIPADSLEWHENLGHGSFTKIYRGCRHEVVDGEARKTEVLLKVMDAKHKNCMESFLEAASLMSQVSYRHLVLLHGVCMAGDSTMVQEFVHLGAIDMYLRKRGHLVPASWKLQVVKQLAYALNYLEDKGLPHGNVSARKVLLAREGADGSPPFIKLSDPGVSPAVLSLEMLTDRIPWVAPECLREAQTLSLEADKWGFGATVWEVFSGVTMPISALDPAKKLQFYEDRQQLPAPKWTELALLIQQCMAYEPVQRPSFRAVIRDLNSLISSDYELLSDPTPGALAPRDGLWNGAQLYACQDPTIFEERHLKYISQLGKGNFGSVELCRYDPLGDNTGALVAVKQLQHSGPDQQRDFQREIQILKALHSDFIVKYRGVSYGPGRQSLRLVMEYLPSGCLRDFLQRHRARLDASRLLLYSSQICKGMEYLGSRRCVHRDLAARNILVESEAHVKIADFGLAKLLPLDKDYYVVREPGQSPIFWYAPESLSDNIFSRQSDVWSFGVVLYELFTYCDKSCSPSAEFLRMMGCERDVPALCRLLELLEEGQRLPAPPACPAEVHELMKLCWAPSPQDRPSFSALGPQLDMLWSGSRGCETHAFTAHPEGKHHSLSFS

Take `CCC(=O)c1cnc(Nc2cnc(C(F)(F)CN3CCCC3)cn2)cc1Nc1cccc(-c2ncn(C)n2)c1OC` [Compound 19E]: the concentration for half-maximal inhibition (IC50) was at least 500 nM in assay [1]; 5 to 50 nM in assay [2] (Table 20, read-out: TYK2 IC50); at least 500 nM in assay [3]; at least 500 nM in assay [4]. For the molecule `CCO[C@H]1C[C@@H](n2ccc(Nc3cc(Nc4cccc(-c5ncn(C)n5)c4OC)c(C(=O)CC)cn3)n2)C1` [Compound 21CC], the IC50 in assay [1] was at least 500 nM; in assay [2] (Table 20, read-out: TYK2 IC50), 5 to 50 nM; in assay [3] it was at least 500 nM; in assay [4] it was at least 500 nM.

For the molecule `CCC(=O)c1cnc(Nc2cnc(O[C@@H]3CCN(C)C3)cn2)cc1Nc1nccc(-c2ncn(C)n2)c1OC` [Compound 18CCC], the IC50 is at least 500 nM in assay [1]; at least 500 nM in assay [2] (Table 20, read-out: TYK2 IC50); at least 500 nM in assay [3]; at least 500 nM in assay [4]. On to `CCC(=O)c1cnc(Nc2cc(C(C)N)ncn2)cc1Nc1cccc(-c2ncn(C)n2)c1OC` (stereo not shown) [Compound 9OOOO], for which the concentration for half-maximal inhibition (IC50) in assay [1] was at least 500 nM; in assay [2] (Table 20, read-out: TYK2 IC50), below 5 nM; in assay [3] it was at least 500 nM; in assay [4], at least 500 nM.

Take `CCC(=O)c1cnc(Nc2ccc(CN3CCCC3)cn2)cc1Nc1cccc(-c2ncn(C)n2)c1OC` [Compound 9II]: the IC50 is at least 500 nM in assay [1]; below 5 nM in assay [2] (Table 20, read-out: TYK2 IC50); at least 500 nM in assay [3]; at least 500 nM in assay [4]. In the case of `CCC(=O)c1cnc(Nc2ccn(C[C@H]3C[C@@H](O)C3)n2)cc1Nc1cccc(-c2ncn(C)n2)c1OC` [Compound 21W], the 50% inhibitory concentration (IC50) is at least 500 nM in assay [1]; 5 to 50 nM in assay [2] (Table 20, read-out: TYK2 IC50); at least 500 nM in assay [3]; at least 500 nM in assay [4]. Turning to `CCC(=O)c1cnc(Nc2ccc(CN(C)C)cn2)cc1Nc1cc(F)cc(-c2ncn(C)n2)c1OC` [Compound 9E], the half-inhibitory concentration (IC50) is at least 500 nM in assay [1]; below 5 nM in assay [2] (Table 20, read-out: TYK2 IC50); at least 500 nM in assay [3]; at least 500 nM in assay [4].

Take `CCC(=O)c1cnc(Nc2ccc(OCCOC)cn2)cc1Nc1cccc(-c2ncn(C)n2)c1OC` [Compound 18D]: the IC50 in assay [1] was at least 500 nM; in assay [2] (Table 20, read-out: TYK2 IC50) it was 5 to 50 nM; in assay [3], at least 500 nM; in assay [4], 50 to 500 nM. `CCC(=O)c1cnc(Nc2cnc(O[C@H]3CCN(C)C3)cn2)cc1Nc1cccc(-c2ncn(C)n2)c1OC` [Compound 18TT]: the 50% inhibitory concentration (IC50) in assay [1] is at least 500 nM; in assay [2] (Table 20, read-out: TYK2 IC50), below 5 nM; in assay [3], at least 500 nM; in assay [4], at least 500 nM.

As to `CCC(=O)c1cnc(Nc2cnc(O[C@H]3CN(C)C[C@H]3F)cn2)cc1Nc1cccc(-c2ncn(C)n2)c1OC` [Compound 18BBB], the concentration for half-maximal inhibition (IC50) in assay [1] is at least 500 nM; in assay [2] (Table 20, read-out: TYK2 IC50), 5 to 50 nM; in assay [3], at least 500 nM; in assay [4], at least 500 nM. Regarding `COc1c(Nc2cc(Nc3ccc(F)cn3)ncc2C(C)=O)cccc1-c1ncn(C)n1` [Compound 7H], the IC50 in assay [2] (setting [5]) is below 5 nM.

Consider `CCOc1ccc(Nc2cc(Nc3cccc(-c4ncn(C)n4)c3OC)c(C(C)=O)cn2)nn1` [Compound 7S], for which, in assay [2] (setting [5]), the IC50 is below 5 nM.

On to `CCC(=O)c1cnc(Nc2cnc(O[C@@H]3CCN(CC)C3)cn2)cc1Nc1cccc(-c2ncn(C)n2)c1OC` [Compound 18DDD], for which, in assay [2] (Table 20, read-out: TYK2 IC50), the concentration for half-maximal inhibition (IC50) was in the range of 5 to 50 nM.

For `COC(=O)c1cnc(NC(=O)C2CC2)cc1Nc1cccc(-c2ncn(C)n2)c1OC` [Compound 3, methyl 6-(cyclopropanecarboxamido)-4-((2-methoxy-3-(1-methyl-1H-1,2,4-triazol-3-yl)phenyl)amino)nicotinate], the IC50 in assay [2] (setting [5]) is below 5 nM.

For the molecule `COc1c(Nc2cc(Nc3ccnc(C)n3)ncc2C(C)=O)cccc1-c1ncn(C)n1` [Compound 7R], the 50% inhibitory concentration (IC50) in assay [2] (setting [5]) was below 5 nM. Still for that read-out and setting: then `COc1c(Nc2cc(Nc3cc(C#N)ccn3)ncc2C(C)=O)cccc1-c1ncn(C)n1` [Compound 7F], with below 5 nM. Same read-out and setting: under `COc1c(Nc2cc(NC(C)=O)ncc2C(C)=O)cccc1-c1ncn(C)n1` [Compound 1G] stands 5 to 50 nM; under `COc1c(Nc2cc(Nc3ccc(F)cc3)ncc2C(C)=O)cccc1-c1ncn(C)n1` [Compound 7B], at least 500 nM; under `COc1c(Nc2cc(N)ncc2C(C)=O)cccc1-c1ncn(C)n1` [Compound 2, 1-(6-amino-4-((2-methoxy-3-(1-methyl-1H-1,2,4-triazol-3-yl)phenyl)amino)pyridin-3-yl)ethan-1-one], at least 500 nM. The same measure, in the same setting: then `COc1c(Nc2cc(NC(=O)OC(C)(C)C)ncc2C(C)=O)cccc1-c1ncn(C)n1` [Compound 1D], with 50 to 500 nM; and `COc1c(Nc2cc(Nc3cc(C)ccn3)ncc2C(C)=O)cccc1-c1ncn(C)n1` [Compound 7D], with below 5 nM. `COc1c(Nc2cc(NC(=O)CN(C)C)ncc2C(C)=O)cccc1-c1ncn(C)n1` [Compound 1M]: in assay [2] (setting [5]), the 50% inhibitory concentration (IC50) is 50 to 500 nM. Turning to `COc1c(Nc2cc(Nc3ncccn3)ncc2C(C)=O)cccc1-c1ncn(C)n1` [Compound 7O], the IC50 in assay [2] (setting [5]) was 50 to 500 nM. Still for that read-out and setting: then `CCCC(=O)Nc1cc(Nc2cccc(-c3ncn(C)n3)c2OC)c(C(C)=O)cn1` [Compound 1I], with below 5 nM. Still for that read-out and setting: under `COc1c(Nc2cc(NC(=O)C3CCC3)ncc2C(C)=O)cccc1-c1ncn(C)n1` [Compound 1J] stands 5 to 50 nM; under `COc1c(Nc2cc(Nc3ccccn3)ncc2C(C)=O)cccc1-c1ncn(C)n1` [Compound 7C], below 5 nM. The same measure, in the same setting: then `COc1c(Nc2cc(NC(=O)[C@H]3C[C@H]3F)ncc2C(C)=O)cccc1-c1ncn(C)n1` [Compound 1L], with 5 to 50 nM; and `COC(=O)Nc1cc(Nc2cccc(-c3ncn(C)n3)c2OC)c(C(C)=O)cn1` [Compound 1N], with 50 to 500 nM. On to `COc1c(Nc2cc(NC(=O)N(C)C)ncc2C(C)=O)cccc1-c1ncn(C)n1` [Compound 1P], for which the IC50 in assay [2] (setting [5]) lay within 50 to 500 nM. On the same count and under the same terms, under `COc1cccc(Nc2cc(Nc3cccc(-c4ncn(C)n4)c3OC)c(C(C)=O)cn2)n1` [Compound 7K] stands below 5 nM. As to `COc1c(Nc2cc(Nc3cc(C)ncn3)ncc2C(C)=O)cccc1-c1ncn(C)n1` [Compound 7Q], the concentration for half-maximal inhibition (IC50) in assay [2] (setting [5]) was below 5 nM.

Take `COc1c(Nc2cc(NC(=O)[C@@H]3C[C@@H]3F)ncc2C(C)=O)cccc1-c1ncn(C)n1` [Compound 1K]: the half-inhibitory concentration (IC50) in assay [2] (setting [5]) is below 5 nM. `COc1c(Nc2cc(Nc3cccc(C)n3)ncc2C(C)=O)cccc1-c1ncn(C)n1` [Compound 7J]: in assay [2] (setting [5]), the half-inhibitory concentration (IC50) was below 5 nM.

Regarding `COc1c(Nc2cc(NC(=O)C3CC3)ncc2C(C)=O)cccc1-c1ncn(C)n1` [Compound 1A, N-(5-acetyl-4-((2-methoxy-3-(1-methyl-1H-1,2,4-triazol-3-yl)phenyl)amino)pyridin-2-yl)cyclopropanecarboxamide], in assay [2] (setting [5]), the IC50 was below 5 nM.

For `COc1ccnc(Nc2cc(Nc3cccc(-c4ncn(C)n4)c3OC)c(C(C)=O)cn2)c1` [Compound 7E], the 50% inhibitory concentration (IC50) in assay [2] (setting [5]) was below 5 nM. On the same count and under the same terms, under `COc1c(Nc2cc(Nc3cc(C)c(F)cn3)ncc2C(C)=O)cccc1-c1ncn(C)n1` [Compound 7L] stands below 5 nM; under `COc1c(Nc2cc(Nc3ccc(N4CCOCC4)cn3)ncc2C(C)=O)cccc1-c1ncn(C)n1` [Compound 7N], below 5 nM; under `COc1c(Nc2cc(Nc3cnn(C)c3)ncc2C(C)=O)cccc1-c1ncn(C)n1` [Compound 7T], 50 to 500 nM. On to `CCC(=O)c1cnc(Nc2cnc(C(F)(F)CN)cn2)cc1Nc1cccc(-c2ncn(C)n2)c1OC` [Compound 19A, 1-(6-((5-(2-amino-1,1-difluoroethyl)pyrazin-2-yl)amino)-4-((2-methoxy-3-(1-methyl-1H-1,2,4-triazol-3-yl)phenyl)amino)pyridin-3-yl)propan-1-one], for which, in assay [2] (Table 20, read-out: TYK2 IC50), the IC50 fell in the range of 5 to 50 nM.

With `COc1ccc(Nc2cc(Nc3cccc(-c4ncn(C)n4)c3OC)c(C(C)=O)cn2)nc1` [Compound 7I], the IC50 in assay [2] (setting [5]) was below 5 nM. Consider `CCC(=O)c1cnc(Nc2cc(C(C)NC)ncn2)cc1Nc1cccc(-c2ncn(C)n2)c1OC` (stereo not shown) [Compound 9PPPP], for which, in assay [3], the IC50 lay within 50 to 500 nM. Regarding `COc1c(Nc2cc(Nc3ccn(C)n3)ncc2C(C)=O)cccc1-c1ncn(C)n1` [Compound 7U], the IC50 in assay [2] (setting [5]) is below 5 nM. With `COc1c(Nc2cc(Nc3cc(C)c(Cl)cn3)ncc2C(C)=O)cccc1-c1ncn(C)n1` [Compound 7M], in assay [2] (setting [5]), the IC50 is below 5 nM. As to `CCC(=O)Nc1cc(Nc2cccc(-c3ncn(C)n3)c2OC)c(C(C)=O)cn1` [Compound 1H], in assay [2] (setting [5]), the half-maximal inhibitory concentration (IC50) lay in the range of 5 to 50 nM. On to `COc1c(Nc2cc(Nc3ncccc3F)ncc2C(C)=O)cccc1-c1ncn(C)n1` [Compound 7G], for which the half-maximal inhibitory concentration (IC50) in assay [2] (setting [5]) lay in the range of 5 to 50 nM. `COc1c(Nc2cc(NC(=O)CN3CCOCC3)ncc2C(C)=O)cccc1-c1ncn(C)n1` [Compound 1O]: the IC50 in assay [2] (setting [5]) was 50 to 500 nM.

Consider `CCC(=O)c1cnc(Nc2ccc(CN3CCN(C)CC3)nn2)cc1Nc1cccc(-c2ncn(C)n2)c1OC` [Compound 9PPP], for which the IC50 in assay [2] (Table 20, read-out: TYK2 IC50) lay within 5 to 50 nM; in assay [3] it was 50 to 500 nM. As for `COc1c(Nc2cc(Nc3ncc(F)cn3)ncc2C(C)=O)cccc1-c1ncn(C)n1` [Compound 7P], the IC50 in assay [2] (setting [5]) lay in the range of 50 to 500 nM. Consider `CCC(=O)c1cnc(Nc2ccc(S(=O)(=O)N(C)C)cn2)cc1Nc1cccc(-c2ncn(C)n2)c1OC` [Compound 13D], for which the IC50 in assay [1], in assay [3] and in assay [4] was at least 500 nM throughout.
